# pIC50: −log10 of the molar value.
# Tested on: THP-1 (AML) cells
# Experiment: LSD1 CD11b cellular assay (flow cytometry)
# Type: cell-based
# Conditions: Homo sapiens, THP-1, 96 h, read-out: THP-1 IC50 (μM)
row,SMILES,IC50 [µM]
1,"COc1ccc(-c2c(-c3ccc(C#N)cc3)nc(N3CCC(N)CC3)n(C)c2=O)cc1 [Example 2, 4-[2-(4-amino-piperidin-1-yl)-5-(4-methoxy-phenyl)-1-methyl-6-oxo-1,6-dihydro-pyrimidin-4-yl]-benzonitrile]",< 0.1

# Same assay, conditions: Homo sapiens, THP-1, 96 h; CD11b expressing cells, 4 days; read-out: THP-1 IC50
row,SMILES,pIC50
1,"CN(C)c1ncc(-c2c(-c3ccc(C#N)c(F)c3)nc(N3CCC(N(C)C)CC3)n(C)c2=O)cn1 [Example 81, 4-[2′-dimethylamino-2-(4-dimethylamino-piperidin-1-yl)-1-methyl-6-oxo-1,6-dihydro-[5,5′]bipyrimidinyl-4-yl]-2-fluoro-benzonitrile]",6.00 to 7.00
2,"Cc1ccc(-c2c(-c3ccc(C#N)c(F)c3)nc(N3CCC(N(C)C)CC3)n(C)c2=O)cn1 [Example 82, 4-[2-(4-dimethylamino-piperidin-1-yl)-1-methyl-5-(6-methyl-pyridin-3-yl)-6-oxo-1,6-dihydro-pyrimidin-4-yl]-2-fluoro-benzonitrile]",6.00 to 7.00
3,"Cn1c(N2CCC(N)CC2)nc(-c2ccc(C#N)c(F)c2)c(Cl)c1=O [Example 20, 4-[2-(4-aminopiperidin-1-yl)-5-chloro-1-methyl-6-oxopyrimidin-4-yl]-2-fluorobenzonitrile]",6.00 to 7.00
4,"Cn1c(N2CCC(N)CC2)nc(-c2ccc(C#N)c(F)c2)c(-c2ccc(CO)cc2)c1=O [Example 100, 4-[2-(4-aminopiperidin-1-yl)-5-[4-(hydroxymethyl)phenyl]-1-methyl-6-oxopyrimidin-4-yl]-2-fluorobenzonitrile]",> 7.00
5,"Cn1c(N2CCC(N)CC2)nc(-c2ccc(C#N)cc2)c(-c2ccc3c(cnn3C)c2)c1=O [Example 33, 4-[2-(4-aminopiperidyl)-1-methyl-5-(1-methyl(1H-indazol-5-yl))-6-oxohydropyrimidin-4-yl]benzenecarbonitrile]",> 7.00
6,"Cn1c(N2CCC(N)CC2)nc(-c2ccc(C#N)c(F)c2)c(-c2ccc(C(F)(F)F)nc2)c1=O [Example 23, 4-{2-(4-aminopiperidyl)-1-methyl-6-oxo-5-[6-(trifluoromethyl) (3-pyridyl)]hydropyrimidin-4-yl}-2-fluorobenzenecarbonitrile]",> 7.00
7,"COc1ccc(-c2c(-c3ccc(C#N)c(F)c3)nc(N3CCNCC3)n(C)c2=O)cc1F [Example 47, 2-fluoro-4-[5-(3-fluoro-4-methoxy-phenyl)-1-methyl-6-oxo-2-piperazin-1-yl-1,6-dihydro-pyrimidin-4-yl]-benzonitrile]",6.00 to 7.00
8,"COc1ccc(-c2c(-c3ccc(C#N)c(F)c3)nc(N3CCCNCC3)n(C)c2=O)cn1 [Example 61, 4-[2-[1,4]diazepan-1-yl-5-(6-methoxy-pyridin-3-yl)-1-methyl-6-oxo-1,6-dihydro-pyrimidin-4-yl]-2-fluoro-benzonitrile]",> 7.00
9,"CCOc1ccc(-c2c(-c3ccc(C#N)c(F)c3)nc(N3CCC(N)CC3)n(C)c2=O)cc1 [Example 95, 4-[2-(4-aminopiperidin-1-yl)-5-(4-ethoxyphenyl)-1-methyl-6-oxopyrimidin-4-yl]-2-fluorobenzonitrile]",> 7.00
10,"COc1ccc(-c2c(-c3ccc(C#N)c(F)c3)nc(NC[C@H]3CCNC3)n(C)c2=O)cc1 [Example 51, 2-fluoro-4-{5-(4-methoxy-phenyl)-1-methyl-6-oxo-2-[(3S)-(pyrrolidin-3-ylmethyl)-amino]-1,6-dihydro-pyrimidin-4-yl}-benzonitrile]",6.00 to 7.00
11,"Cn1c(N2CCC(N)CC2)nc(-c2ccc(C#N)c(F)c2)c(-c2cccc(F)c2)c1=O [Example 102, 4-[2-(4-aminopiperidin-1-yl)-5-(3-fluorophenyl)-1-methyl-6-oxopyrimidin-4-yl]-2-fluorobenzonitrile]",> 7.00
12,"COc1ccc(-c2c(-c3ccc(C#N)cc3)nc(NC3CCNCC3)n(C)c2=O)cc1F [Example 48, 4-[5-(3-fluoro-4-methoxy-phenyl)-1-methyl-6-oxo-2-(piperidin-4-ylamino)-1,6-dihydro-pyrimidin-4-yl]-benzonitrile]",6.00 to 7.00
13,"Cn1c(N2CCC(N)CC2)nc(-c2ccc(C#N)c(F)c2)c(-c2ccc3ccn(C)c3c2)c1=O [Example 76, 4-[2-(4-amino-piperidin-1-yl)-1-methyl-5-(1-methyl-1H-indol-6-yl)-6-oxo-1,6-dihydro-pyrimidin-4-yl]-2-fluoro-benzonitrile]",> 7.00
14,"COc1ccc(-c2c(-c3ccc(C#N)cc3)nc(NC[C@@H]3CCNC3)n(C)c2=O)cc1F [Example 45, 4-{5-(3-fluoro-4-methoxy-phenyl)-1-methyl-6-oxo-2-[(3R)-(pyrrolidin-3-ylmethyl)-amino]-1,6-dihydro-pyrimidin-4-yl}-benzonitrile]",6.00 to 7.00
15,"COc1ccc(-c2c(-c3ccc(C#N)c(F)c3)nc(NC3CCNCC3)n(C)c2=O)cc1 [Example 53, 2-fluoro-4-[5-(4-methoxy-phenyl)-1-methyl-6-oxo-2-(piperidin-4-ylamino)-1,6-dihydro-pyrimidin-4-yl]-benzonitrile]",6.00 to 7.00
16,"Cn1c(N2CCC(N)CC2)nc(-c2ccc(C#N)c(F)c2)c(-c2ccc(F)c(F)c2)c1=O [Example 104, 4-[2-(4-aminopiperidin-1-yl)-5-(3,4-difluorophenyl)-1-methyl-6-oxopyrimidin-4-yl]-2-fluorobenzonitrile]",> 7.00
17,"COc1ccc(-c2c(-c3ccc(Cl)c(F)c3)nc(N3CCC(N)CC3)n(C)c2=O)cc1 [Example 111, 2-(4-amino-piperidin-1-yl)-6-(4-chloro-3-fluoro-phenyl)-5-(4-methoxy-phenyl)-3-methyl-3H-pyrimidin-4-one]",6.00 to 7.00

# Further lines, results first:
row,pIC50,SMILES
1,> 7.00,"CN(C)c1ccc(-c2c(-c3ccc(C#N)c(F)c3)nc(N3CCC(N)CC3)n(C)c2=O)cn1 [Example 57, 4-[2-(4-amino-piperidin-1-yl)-5-(6-dimethylamino-pyridin-3-yl)-1-methyl-6-oxo-1,6-dihydro-pyrimidin-4-yl]-2-fluoro-benzonitrile]"
2,6.00 to 7.00,"Cn1c(N2CCC(N)CC2)nc(-c2ccc(C#N)c(F)c2)cc1=O [Example 108, 4-[2-(4-aminopiperidin-1-yl)-1-methyl-6-oxopyrimidin-4-yl]-2-fluorobenzonitrile]"
3,> 7.00,"CN(C)C1CCN(c2nc(-c3ccc(C#N)c(F)c3)c(-c3ccc4cn[nH]c4c3)c(=O)n2C)CC1 [Example 84, 4-[2-(4-dimethylamino-piperidin-1-yl)-5-(2H-indazol-6-yl)-1-methyl-6-oxo-1,6-dihydro-pyrimidin-4-yl]-2-fluoro-benzonitrile]"
4,> 7.00,"COc1ccc(-c2c(-c3ccc(C#N)c(F)c3)nc(N3CCC(N(C)C)CC3)n(C)c2=O)cn1 [Example 92, 4-[2-[4-(dimethylamino)piperidin-1-yl]-5-(6-methoxypyridin-3-yl)-1-methyl-6-oxopyrimidin-4-yl]-2-fluorobenzonitrile]"
5,6.00 to 7.00,"Cn1c(N2CCC(N)CC2)nc(-c2ccc(C#N)c(F)c2)c(-c2ccc3c(c2)CNC3=O)c1=O [Example 42, 4-[2-(4-amino-piperidin-1-yl)-1-methyl-6-oxo-5-(1-oxo-2,3-dihydro-1H-isoindol-5-yl)-1,6-dihydro-pyrimidin-4-yl]-2-fluoro-benzonitrile]"
6,6.00 to 7.00,"CNC(=O)c1ccc(-c2c(-c3ccc(C#N)cc3)nc(N3CCC(N)CC3)n(C)c2=O)cc1F [Example 40, {4-[2-(4-aminopiperidyl)-6-(4-cyanophenyl)-3-methyl-4-oxo(3-hydropyrimidin-5-yl)]-2-fluorophenyl}-N-methylcarboxamide]"
7,> 7.00,"CNC1CCN(c2nc(-c3ccc(C#N)c(F)c3)c(-c3ccc(OC)c(F)c3)c(=O)n2C)CC1 [Example 12, 2-fluoro-4-[5-(3-fluoro-4-methoxy-phenyl)-1-methyl-2-(4-methylamino-piperidin-1-yl)-6-oxo-1,6-dihydro-pyrimidin-4-yl]-benzonitrile]"
8,> 7.00,"CN(C)c1ccc(-c2c(-c3ccc(C#N)c(F)c3)nc(N3CCCNCC3)n(C)c2=O)cn1 [Example 63, 4-[2-[1,4]diazepan-1-yl-5-(6-dimethylamino-pyridin-3-yl)-1-methyl-6-oxo-1,6-dihydro-pyrimidin-4-yl]-2-fluoro-benzonitrile]"
9,> 7.00,"CCOc1ncc(-c2c(-c3ccc(C#N)c(F)c3)nc(N3CCC(N)CC3)n(C)c2=O)cc1F [Example 93, 4-[2-(4-aminopiperidin-1-yl)-5-(6-ethoxy-5-fluoropyridin-3-yl)-1-methyl-6-oxopyrimidin-4-yl]-2-fluorobenzonitrile]"
10,> 7.00,"Cn1c(N2CCC(N)CC2)nc(-c2ccc(C#N)c(F)c2)c(-c2ccc3cn[nH]c3c2)c1=O [Example 77, 4-[2-(4-amino-piperidin-1-yl)-5-(1H-indazol-6-yl)-1-methyl-6-oxo-1,6-dihydro-pyrimidin-4-yl]-2-fluoro-benzonitrile]"
11,> 7.00,"Cn1c(N2CCC(N)CC2)nc(-c2ccc(C#N)c(F)c2)c(-c2ccc(Cl)cc2)c1=O [Example 106, 4-[2-(4-aminopiperidin-1-yl)-5-(4-chlorophenyl)-1-methyl-6-oxopyrimidin-4-yl]-2-fluorobenzonitrile]"
12,> 7.00,"CNCC1CN(c2nc(-c3ccc(C#N)c(F)c3)c(-c3ccc(OC)cc3)c(=O)n2C)C1 [Example 70, 2-fluoro-4-[5-(4-methoxy-phenyl)-1-methyl-2-(3-methylaminomethyl-azetidin-1-yl)-6-oxo-1,6-dihydro-pyrimidin-4-yl]-benzonitrile]"
13,> 7.00,"Cn1c(N2CCC(N)CC2)nc(-c2ccc(C#N)c(F)c2)c(-c2ccc3cc[nH]c3c2)c1=O [Example 75, 4-[2-(4-amino-piperidin-1-yl)-5-(1H-indol-6-yl)-1-methyl-6-oxo-1,6-dihydro-pyrimidin-4-yl]-2-fluoro-benzonitrile]"
14,> 7.00,"CCOc1ccc(-c2c(-c3ccc(C#N)c(F)c3)nc(N3CCC(N)CC3)n(C)c2=O)cn1 [Example 94, 4-[2-(4-aminopiperidin-1-yl)-5-(6-ethoxypyridin-3-yl)-1-methyl-6-oxopyrimidin-4-yl]-2-fluorobenzonitrile]"
15,> 7.00,"CNc1ccc(-c2c(-c3ccc(C#N)c(F)c3)nc(N3CCC(N)CC3)n(C)c2=O)cc1F [Example 91, 4-[2-(4-aminopiperidin-1-yl)-5-[3-fluoro-4-(methylamino)phenyl]-1-methyl-6-oxopyrimidin-4-yl]-2-fluorobenzonitrile]"
